Results reported in patent publication US11661405B2, “Crystal forms of tetrahydro-n,n-dimethyl-2,2-diphenyl-3-furanmethanamine hydrochloride, processes of making such forms, and their pharmaceutical compositions” (ANAVEX LIFE SCIENCES CORP., priority 2015, dated 2023).

Tests used:
[1] = tested on: amyloid toxicity (Aβ25-35); settings: cited from earlier work
[2] = tested on: PI3K neuroprotective pathway (P-Akt, P-GSK-3β), Tau, Aβ1-42; settings: cited from earlier work
[3] = storage stability of crystalline forms, checked by PXRD; assay type: physicochemical; settings: 40° C., 75% relative humidity, uncapped vessels, 1 week; forms from SCF in ethanol or dichloromethane
From the text: The present disclosure also provides a metabolite of tetrahydro-N,N-dimethyl-2,2-diphenyl-3-furanmethanamine hydrochloride, ANAVEX19-144. […] See for example J. of Psychopharmacol. 25(8), 1101-1117 (2011). Crystalline forms of ANAVEX19-144 were produced by placing the ANAVEX19-144 starting material in a solvent of ethanol or dichloromethane and processed by the supercritical fluid technique. The crystalline form of ANAVEX19-144 produced by the supercritical fluid technique under process parameters of 40 mg/mL ethanol solution, 200 bars of pressure, temperature of 80° C., supercritical CO2 solution with a flow rate of 20 g/min and a TS flow of 0.4 mL/min, was characterized by PXRD, FTIR, DSC, and SEM, as shown in FIGS. 12-15. […] The crystalline form of ANAVEX19-144 produced using the dichloromethane supercritical fluid technique produced a powder with better flow characteristics and improved flow properties for downstream processing. The two crystalline forms of ANAVEX19-144, produced according to the supercritical fluid technique in ethanol or dichloromethane were stored at 40° C. at 75% relative humidity in uncapped vessels for 1 week and then characterized by PXRD to determine stability of the two forms.

| SMILES | oxidative stress, caspases induction, cellular loss and learning and memory deficits ([1]; mice one week after i.c.v. injection of oligomeric Aβ25-35) | neuroprotective potential against amyloid toxicity ([1]; mice) | Aβ25-35-induced P-Akt decrease and P-GSK-3β increase ([2]; Aβ25-35-induced) | Aβ25-35-induced endogenous Aβ1-42 seeding ([2]; Aβ25-35-induced) | hyperphosphorylation of Tau on physiological epitopes (AT-8 clone) and pathological epitopes (AT-100 clone) ([2]; in the dose-range tested) | stability of the two crystalline forms (PXRD after storage) [3] |
| --- | --- | --- | --- | --- | --- | --- |
| CN(C)CC1CCOC1(c1ccccc1)c1ccccc1.Cl (stereo not drawn) [ANAVEX2-73, tetrahydro-N,N-dimethyl-2,2-diphenyl-3-furanmethanamine hydrochloride] | attenuating | shows neuroprotective potential against amyloid toxicity | blocked | decrease | attenuated | – |
| CNCC1CCOC1(c1ccccc1)c1ccccc1.Cl (stereo not drawn) [ANAVEX19-144] | – | – | – | – | – | stable under the conditions tested |
